Laboratory results reported in patent US6365621B1, “Remedies or preventives for intractable epilepsy” (Pharmaceutical Co., Ltd., priority 1998, dated 2002).

System: kainate-induced amygdala seizures
Assay: Local cerebral glucose metabolism during kainate-induced amygdala seizures ([14C]deoxyglucose autoradiography)
Type: in vivo, rat
Parameters: key to Effect on local cerebral glucose metabolism rate: → : no change; →↓ : decreased in a low degree; ↓ : decreased in a moderate degree; ↓↓ : decreased in a high degree
Conditions: for Local glucose metabolism rate: average ± standard error
Text: [Method for measuring cerebral glucose metabolism] Cannulas for injection of kainic acid were inserted in an assigned position of the left side of the amygdala of 18 Wistar male rats and fixed through the same procedure as described in Example I-1. Seven days after operation, polyethylene catheters were set and fixed to the femoral artery and vein of one side under halothane anesthesion, and the lower half of the body of each rat were put in plaster so as to prevent removal of the catheter. Upon awakening from narcotism, the same kainic acid solution as described in I-1 (1 μL) was injected through the cannula so as to induce seizures. After elapse of 90 minutes from injection of kainic acid, when limbic system seizures were in status epilepticus, 50, 100, or 200 mg/kg of nefiracetam was intravenously injected, whereas saline was injected into rats of the control group. After 60 minutes, 25 μCi of [^14C] deoxyglucose was intravenously injected. After the tracer was injected, blood was continuously collected from the artery for 45 minutes. When collection was finished, heads were cut off. Brains were extirpated immediately and instantly frozen in by hexane (−25° C.) cooled by dry ice. The frozen brain was sliced in a cryostat (−20° C.) so as to produce coronary, serial-frozen sections having a thickness of 20 μm. Subsequently, the sections were dried and put on high-speed X-ray film with a [^14C] standard, followed by seven-day-exposure in a cassette to thereby obtain an autoradiogram. The blood samples collected from the artery were centrifuged so as to collect plasma, the [^14C] radioactivity was measured by use of a liquid scintillation counter, and glucose concentration in plasma was measured.
The optical density of the intracerebral structure of each section was measured from the autoradiogram by use of a densitometer, and a glucose utilization rate of each intracerabral structure was calculated by use of the formula of Sokoloff (Sokoloff, L., Reivich, M., Kennedy, C., et al., J. Neurochemistry, 28: 897-916, 1977) based on [^14C] radioactivity and glucose concentration in plasma. The obtained data were compared quantitatively and statistically with those of the control group, through the Mann-Whitney U-test.

[1] = Amygdala, focal side, 100 mg/kg i.v.
[2] = Amygdala, non-focal side, 100 mg/kg i.v.
[3] = Brain stem reticular formation, focal side, 100 mg/kg i.v.
[4] = Brain stem reticular formation, non-focal side, 100 mg/kg i.v.
[5] = Candatum-putamen, focal side, 100 mg/kg i.v.
[6] = Candatum-putamen, non-focal side, 100 mg/kg i.v.
[7] = Cerebellar cortex, focal side, 100 mg/kg i.v.
[8] = Cerebellar cortex, non-focal side, 100 mg/kg i.v.
[9] = Corpus callosum, focal side, 100 mg/kg i.v.
[10] = Corpus callosum, non-focal side, 100 mg/kg i.v.
[11] = Frontal lobe cortex, focal side, 100 mg/kg i.v.
[12] = Frontal lobe cortex, non-focal side, 100 mg/kg i.v.
[13] = Hypothalamaus, focal side, 100 mg/kg i.v.
[14] = Hypothalamaus, non-focal side, 100 mg/kg i.v.
[15] = Occipital lobe cortex, focal side, 100 mg/kg i.v.
[16] = Occipital lobe cortex, non-focal side, 100 mg/kg i.v.
[17] = Parietal lobe cortex, focal side, 100 mg/kg i.v.
[18] = Parietal lobe cortex, non-focal side, 100 mg/kg i.v.
[19] = Sensorimotor area cortex, focal side, 100 mg/kg i.v.
[20] = Sensorimotor area cortex, non-focal side, 100 mg/kg i.v.
[21] = Septal area, focal side, 100 mg/kg i.v.
[22] = Septal area, non-focal side, 100 mg/kg i.v.
[23] = Substantia nigra, focal side, 100 mg/kg i.v.
[24] = Substantia nigra, non-focal side, 100 mg/kg i.v.
[25] = Temporal lobe cortex, focal side, 100 mg/kg i.v.
[26] = Temporal lobe cortex, non-focal side, 100 mg/kg i.v.
[27] = Thalamus, focal side, 100 mg/kg i.v.
[28] = Thalamus, non-focal side, 100 mg/kg i.v.
[29] = hippocampus, focal side, 100 mg/kg i.v.
[30] = hippocampus, non-focal side, 100 mg/kg i.v.

Cc1cccc(C)c1NC(=O)CN1CCCC1=O [nefiracetam, N-(2,6-dimethylphenyl)-2-(2-oxo-1-pyrrolidinyl)acetamide]
Regions with promoted glucose metabolism (200 mg/kg i.v.): the amygdala on the focal side is the only region where the metabolism is prompted
Effect on local cerebral glucose metabolism rate (Amygdala, focal side, 50 mg/kg i.v.): →
Effect on local cerebral glucose metabolism rate [1]: →
Local glucose metabolism rate [1]: 201 ± 4.5 µmol/100 g/min
Effect on local cerebral glucose metabolism rate (Amygdala, focal side, 200 mg/kg i.v.): ↓
Effect on local cerebral glucose metabolism rate (Amygdala, non-focal side, 50 mg/kg i.v.): →
Effect on local cerebral glucose metabolism rate [2]: ↓↓
Local glucose metabolism rate [2]: 66.2 ± 3.8 µmol/100 g/min
Effect on local cerebral glucose metabolism rate (Amygdala, non-focal side, 200 mg/kg i.v.): ↓↓
Effect on local cerebral glucose metabolism rate (Brain stem reticular formation, focal side, 50 mg/kg i.v.): →
Effect on local cerebral glucose metabolism rate [3]: →↓
Local glucose metabolism rate [3]: 52.9 ± 3.5 µmol/100 g/min
Effect on local cerebral glucose metabolism rate (Brain stem reticular formation, focal side, 200 mg/kg i.v.): ↓
Effect on local cerebral glucose metabolism rate (Brain stem reticular formation, non-focal side, 50 mg/kg i.v.): →
Effect on local cerebral glucose metabolism rate [4]: ↓
Local glucose metabolism rate [4]: 49.6 ± 3.3 µmol/100 g/min
Effect on local cerebral glucose metabolism rate (Brain stem reticular formation, non-focal side, 200 mg/kg i.v.): ↓
Effect on local cerebral glucose metabolism rate (Candatum-putamen, focal side, 50 mg/kg i.v.): →
Effect on local cerebral glucose metabolism rate [5]: →
Local glucose metabolism rate [5]: 207 ± 16.5 µmol/100 g/min
Effect on local cerebral glucose metabolism rate (Candatum-putamen, focal side, 200 mg/kg i.v.): ↓
Effect on local cerebral glucose metabolism rate (Candatum-putamen, non-focal side, 50 mg/kg i.v.): →↓
Effect on local cerebral glucose metabolism rate [6]: ↓↓
Local glucose metabolism rate [6]: 73.1 ± 2.5 µmol/100 g/min
Effect on local cerebral glucose metabolism rate (Candatum-putamen, non-focal side, 200 mg/kg i.v.): ↓↓
Effect on local cerebral glucose metabolism rate (Cerebellar cortex, focal side, 50 mg/kg i.v.): →
Effect on local cerebral glucose metabolism rate [7]: →
Local glucose metabolism rate [7]: 47.2 ± 2.5 µmol/100 g/min
Effect on local cerebral glucose metabolism rate (Cerebellar cortex, focal side, 200 mg/kg i.v.): →
Effect on local cerebral glucose metabolism rate (Cerebellar cortex, non-focal side, 50 mg/kg i.v.): →
Effect on local cerebral glucose metabolism rate [8]: ↓
Local glucose metabolism rate [8]: 46.1 ± 2.1 µmol/100 g/min
Effect on local cerebral glucose metabolism rate (Cerebellar cortex, non-focal side, 200 mg/kg i.v.): →
Effect on local cerebral glucose metabolism rate (Corpus callosum, focal side, 50 mg/kg i.v.): →
Effect on local cerebral glucose metabolism rate [9]: →
Local glucose metabolism rate [9]: 21.9 ± 1.1 µmol/100 g/min
Effect on local cerebral glucose metabolism rate (Corpus callosum, focal side, 200 mg/kg i.v.): →
Effect on local cerebral glucose metabolism rate (Corpus callosum, non-focal side, 50 mg/kg i.v.): →
Effect on local cerebral glucose metabolism rate [10]: →
Local glucose metabolism rate [10]: 21.1 ± 1.1 µmol/100 g/min
Effect on local cerebral glucose metabolism rate (Corpus callosum, non-focal side, 200 mg/kg i.v.): →
Effect on local cerebral glucose metabolism rate (Frontal lobe cortex, focal side, 50 mg/kg i.v.): →
Effect on local cerebral glucose metabolism rate [11]: ↓
Local glucose metabolism rate [11]: 81.8 ± 5.7 µmol/100 g/min
Effect on local cerebral glucose metabolism rate (Frontal lobe cortex, focal side, 200 mg/kg i.v.): ↓
Effect on local cerebral glucose metabolism rate (Frontal lobe cortex, non-focal side, 50 mg/kg i.v.): →
Effect on local cerebral glucose metabolism rate [12]: ↓
Local glucose metabolism rate [12]: 65.7 ± 3.6 µmol/100 g/min
Effect on local cerebral glucose metabolism rate (Frontal lobe cortex, non-focal side, 200 mg/kg i.v.): ↓
Effect on local cerebral glucose metabolism rate (Hypothalamaus, focal side, 50 mg/kg i.v.): →
Effect on local cerebral glucose metabolism rate [13]: ↓
Local glucose metabolism rate [13]: 70.6 ± 4.7 µmol/100 g/min
Effect on local cerebral glucose metabolism rate (Hypothalamaus, focal side, 200 mg/kg i.v.): ↓
Effect on local cerebral glucose metabolism rate (Hypothalamaus, non-focal side, 50 mg/kg i.v.): →
Effect on local cerebral glucose metabolism rate [14]: →↓
Local glucose metabolism rate [14]: 58.5 ± 4.5 µmol/100 g/min
Effect on local cerebral glucose metabolism rate (Hypothalamaus, non-focal side, 200 mg/kg i.v.): ↓
Effect on local cerebral glucose metabolism rate (Occipital lobe cortex, focal side, 50 mg/kg i.v.): →
Effect on local cerebral glucose metabolism rate [15]: →↓
Local glucose metabolism rate [15]: 139 ± 5.6 µmol/100 g/min
Effect on local cerebral glucose metabolism rate (Occipital lobe cortex, focal side, 200 mg/kg i.v.): ↓
Effect on local cerebral glucose metabolism rate (Occipital lobe cortex, non-focal side, 50 mg/kg i.v.): →
Effect on local cerebral glucose metabolism rate [16]: →↓
Local glucose metabolism rate [16]: 78.6 ± 5.8 µmol/100 g/min
Effect on local cerebral glucose metabolism rate (Occipital lobe cortex, non-focal side, 200 mg/kg i.v.): ↓
Effect on local cerebral glucose metabolism rate (Parietal lobe cortex, focal side, 50 mg/kg i.v.): →
Effect on local cerebral glucose metabolism rate [17]: →↓
Local glucose metabolism rate [17]: 109 ± 10.6 µmol/100 g/min
Effect on local cerebral glucose metabolism rate (Parietal lobe cortex, focal side, 200 mg/kg i.v.): ↓
Effect on local cerebral glucose metabolism rate (Parietal lobe cortex, non-focal side, 50 mg/kg i.v.): →
Effect on local cerebral glucose metabolism rate [18]: →↓
Local glucose metabolism rate [18]: 72.1 ± 4.9 µmol/100 g/min
Effect on local cerebral glucose metabolism rate (Parietal lobe cortex, non-focal side, 200 mg/kg i.v.): ↓
Effect on local cerebral glucose metabolism rate (Sensorimotor area cortex, focal side, 50 mg/kg i.v.): →
Effect on local cerebral glucose metabolism rate [19]: →
Local glucose metabolism rate [19]: 139 ± 9 µmol/100 g/min
Effect on local cerebral glucose metabolism rate (Sensorimotor area cortex, focal side, 200 mg/kg i.v.): ↓
Effect on local cerebral glucose metabolism rate (Sensorimotor area cortex, non-focal side, 50 mg/kg i.v.): →
Effect on local cerebral glucose metabolism rate [20]: ↓
Local glucose metabolism rate [20]: 73.4 ± 4.7 µmol/100 g/min
Effect on local cerebral glucose metabolism rate (Sensorimotor area cortex, non-focal side, 200 mg/kg i.v.): ↓
Effect on local cerebral glucose metabolism rate (Septal area, focal side, 50 mg/kg i.v.): →
Effect on local cerebral glucose metabolism rate [21]: ↓
Local glucose metabolism rate [21]: 117 ± 22.7 µmol/100 g/min
Effect on local cerebral glucose metabolism rate (Septal area, focal side, 200 mg/kg i.v.): ↓↓
Effect on local cerebral glucose metabolism rate (Septal area, non-focal side, 50 mg/kg i.v.): →
Effect on local cerebral glucose metabolism rate [22]: ↓↓
Local glucose metabolism rate [22]: 56.9 ± 3.3 µmol/100 g/min
Effect on local cerebral glucose metabolism rate (Septal area, non-focal side, 200 mg/kg i.v.): ↓↓
Effect on local cerebral glucose metabolism rate (Substantia nigra, focal side, 50 mg/kg i.v.): →
Effect on local cerebral glucose metabolism rate [23]: ↓
Local glucose metabolism rate [23]: 77.6 ± 6.8 µmol/100 g/min
Effect on local cerebral glucose metabolism rate (Substantia nigra, focal side, 200 mg/kg i.v.): ↓
Effect on local cerebral glucose metabolism rate (Substantia nigra, non-focal side, 50 mg/kg i.v.): →
Effect on local cerebral glucose metabolism rate [24]: ↓
Local glucose metabolism rate [24]: 45.9 ± 2.7 µmol/100 g/min
Effect on local cerebral glucose metabolism rate (Substantia nigra, non-focal side, 200 mg/kg i.v.): ↓
Effect on local cerebral glucose metabolism rate (Temporal lobe cortex, focal side, 50 mg/kg i.v.): →
Effect on local cerebral glucose metabolism rate [25]: →↓
Local glucose metabolism rate [25]: 103 ± 6.2 µmol/100 g/min
Effect on local cerebral glucose metabolism rate (Temporal lobe cortex, focal side, 200 mg/kg i.v.): ↓
Effect on local cerebral glucose metabolism rate (Temporal lobe cortex, non-focal side, 50 mg/kg i.v.): →
Effect on local cerebral glucose metabolism rate [26]: ↓
Local glucose metabolism rate [26]: 67.8 ± 3.5 µmol/100 g/min
Effect on local cerebral glucose metabolism rate (Temporal lobe cortex, non-focal side, 200 mg/kg i.v.): ↓
Effect on local cerebral glucose metabolism rate (Thalamus, focal side, 50 mg/kg i.v.): →
Effect on local cerebral glucose metabolism rate [27]: ↓
Local glucose metabolism rate [27]: 90.5 ± 3.8 µmol/100 g/min
Effect on local cerebral glucose metabolism rate (Thalamus, focal side, 200 mg/kg i.v.): ↓↓
Effect on local cerebral glucose metabolism rate (Thalamus, non-focal side, 50 mg/kg i.v.): ↓
Effect on local cerebral glucose metabolism rate [28]: ↓↓
Local glucose metabolism rate [28]: 72.3 ± 2.8 µmol/100 g/min
Effect on local cerebral glucose metabolism rate (Thalamus, non-focal side, 200 mg/kg i.v.): ↓↓
Effect on local cerebral glucose metabolism rate (hippocampus, focal side, 50 mg/kg i.v.): →↓
Effect on local cerebral glucose metabolism rate [29]: ↓
Local glucose metabolism rate [29]: 184 ± 7.1 µmol/100 g/min
Effect on local cerebral glucose metabolism rate (hippocampus, focal side, 200 mg/kg i.v.): ↓↓
Effect on local cerebral glucose metabolism rate (hippocampus, non-focal side, 50 mg/kg i.v.): ↓
Effect on local cerebral glucose metabolism rate [30]: ↓↓
Local glucose metabolism rate [30]: 87.2 ± 8.9 µmol/100 g/min
Effect on local cerebral glucose metabolism rate (hippocampus, non-focal side, 200 mg/kg i.v.): ↓↓
